# Test results: EP3860599B1, “(+)-ALPHA-DIHYDROTETRABENAZINE DOSAGE REGIMEN FOR TREATING MOVEMENT DISORDERS” (Adeptio Pharmaceuticals Limited, priority 2018, dated 2020)
# Where two headings read alike, the source gives them in different places.
# Experiments:
# [1] = cited from earlier work; for symptoms scored with the abnormal involuntary movement scale (AIMS): KINECT 1, tardive dyskinesia patients
# amphetamine-induced rats = test: Open field locomotor activity test in amphetamine-induced rats (Example 2, Studies 1, 2 and 4); type: in vivo; conditions: 1 mg/kg
# Procedure: (§1) All animal experiments were carried out according to the National Institute of Health (NIH) guidelines for the care and use of laboratory animals, and approved by the National Animal Experiment Board, Finland. Male CD (Charles River Laboratories, Germany) at weight range of 200-250 g (165-200 g upon arrival) were used for the experiments. Animals were housed at a standard temperature (22 ± 1°C) and in a light-controlled environment (lights on from 7 am to 8 pm) with ad libitum access to food and water.
# (§2) Locomotor activity of the rats was tested in open field arena. The open field test was performed during the rat light cycle and under a normal lighting evenly distributed to the test chambers. The paths of the rats were recorded by activity monitor (Med. Associates Inc.).
# (§3) Dosing the vehicle, vehicle-amphetamine, (+)-α-DHTBZ or risperidone was done prior to LMA test. The rats were placed in the centre of the arena, and the path was recorded for 60 minutes.
# Animals were grouped as follows: • Group 1: 10 rats treated with Vehicle (t= 0 min) and Vehicle (t= 30 min) • Group 2: 10 rats treated with Vehicle (t= 0 min) and Amphetamine (t= 30 min) • Group 3: 10 rats treated with (+)-α-DHTBZ 0.5 mg/kg (t=0 min) and Amphetamine (t= 30 min) • Group 4: 10 rats treated with (+)-α-DHTBZ 1 mg/kg (t=0 min) and Amphetamine (t= 30 min) • Group 5: 10 rats treated with (+)-α-DHTBZ 1.5 mg/kg (t=0 min) and Amphetamine (t= 30 min) • Group 6: 10 rats treated with (+)-α-DHTBZ 2 mg/kg (t=0 min) and Amphetamine (t= 30 min) • Group 7: 10 rats treated with risperidone 1 mg/kg (t=0 min) and Amphetamine (t= 30 min)
# Animals were grouped as follows: • Group 1: 10 rats treated with Vehicle (t= 0 min) and Vehicle (t= 30 min) • Group 2: 10 rats treated with Vehicle (t= 0 min) and Amphetamine (t= 30 min) • Group 3: 10 rats treated with (+)-α-DHTBZ 0.1 mg/kg (t=0 min) and Amphetamine (t=30 min) • Group 4: 10 rats treated with (+)-α-DHTBZ 0.25 mg/kg (t=0 min) and Amphetamine (t=30 min) • Group 5: 10 rats treated with risperidone 1 mg/kg (t=0 min) and Amphetamine (t= 30 min)
# Animals were grouped as follows: • Group 1: 10 rats treated with Vehicle (t= 0 min) and Vehicle (t= 30 min) • Group 2: 10 rats treated with Vehicle (t= 0 min) and Amphetamine (t= 30 min) • Group 3: 10 rats treated with (+)-α-DHTBZ 1 mg/kg (t=0 min) and Amphetamine (t=30 min) • Group 4: 10 rats treated with (+)-α-DHTBZ 1.5 mg/kg (t=0 min) and Amphetamine (t=30 min) • Group 5: 10 rats treated with Valbenazine 1 mg/kg (t=0 min) and Amphetamine (t=30 min) • Group 6: 10 rats treated with Valbenazine 1.5 mg/kg (t=0 min) and Amphetamine (t=30 min) • Group 7: 10 rats treated with risperidone 1 mg/kg (t=0 min) and Amphetamine (t= 30 min)
# [2] = test system: non-amphetamine induced rats; test: Open field locomotor activity test in rats without amphetamine induction (Example 2, Study 3); type: in vivo; conditions: 1 mg/kg
# Procedure: as §1, §2, §3
# Animals were grouped as follows: • Group 1: 10 rats treated with Vehicle • Group 2: 10 rats treated with (+)-α-DHTBZ 2.5 mg/kg • Group 3: 10 rats treated with (+)-α-DHTBZ 5 mg/kg • Group 4: 10 rats treated with risperidone 1 mg/kg
Compound,symptoms scored with the abnormal involuntary movement scale (AIMS) ([1]; 50 mg/day),symptoms scored with the abnormal involuntary movement scale (AIMS) ([1]; 100 mg/day),"Abnormal Involuntary Movement Score ([1]; KINECT 3, Tardive Dyskinesia sufferers, 80mg/day)",locomotor activity when compared to the vehicle-amphetamine group (amphetamine-induced rats; Study 1 conclusions),stereotypic behaviour when compared to the vehicle-amphetamine group (amphetamine-induced rats; Study 1 conclusions),locomotor activity when compared to the vehicle-amphetamine group (amphetamine-induced rats; Study 2 conclusions),stereotypic behaviour when compared to the vehicle-amphetamine group (amphetamine-induced rats; Study 2 conclusions),total movement [2],total stereotypic behaviour [2]
"COc1cc2c(cc1OC)[C@H]1C[C@@H](OC(=O)[C@@H](N)C(C)C)[C@H](CC(C)C)CN1CC2 [Valbenazine, reference compound]",did not show any significant signs of improvement,some reduction of symptoms,significant improvement,,,,,,
"Cc1nc2n(c(=O)c1CCN1CCC(c3noc4cc(F)ccc34)CC1)CCCC2 [risperidone, reference compound]",,,,lower locomotor activity,reduced stereotypic behaviour,lower locomotor activity,reduced stereotypic behaviour,reduced total movement,reduced total stereotypic behaviour
